Results: ChEMBL document CHEMBL6121027, “Novel Bicyclic Heterocyclic Compounds as CD73 Inhibitors for Treating Cancer” (ACS Med Chem Lett, 2025)

Target: 5'-nucleotidase (Homo sapiens, UniProt P21589)
Test: Inhibition of recombinant human CD73 preincubated for 15 mins followed by AMP addition measured after 10 mins by LC/MS analysis

Chain of 5'-nucleotidase (P21589 whole entry): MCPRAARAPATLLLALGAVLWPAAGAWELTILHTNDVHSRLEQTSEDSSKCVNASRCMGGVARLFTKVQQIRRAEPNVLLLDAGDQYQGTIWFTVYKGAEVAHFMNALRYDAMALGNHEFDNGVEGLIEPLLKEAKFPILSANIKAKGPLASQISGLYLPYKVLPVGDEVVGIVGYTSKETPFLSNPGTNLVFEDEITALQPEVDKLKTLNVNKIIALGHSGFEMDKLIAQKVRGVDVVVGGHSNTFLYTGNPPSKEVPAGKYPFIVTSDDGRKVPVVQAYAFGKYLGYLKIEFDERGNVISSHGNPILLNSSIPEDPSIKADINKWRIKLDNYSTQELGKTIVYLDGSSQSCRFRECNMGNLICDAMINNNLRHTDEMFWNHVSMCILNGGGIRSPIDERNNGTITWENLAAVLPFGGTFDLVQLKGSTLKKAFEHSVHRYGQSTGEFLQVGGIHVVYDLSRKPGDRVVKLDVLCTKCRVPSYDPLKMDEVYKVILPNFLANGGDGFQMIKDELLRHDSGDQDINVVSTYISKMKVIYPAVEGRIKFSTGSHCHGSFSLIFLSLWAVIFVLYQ

| IC50 [nM] | SMILES |
| --- | --- |
| 0.04 | C[C@H](Nc1cc([C@@H](Oc2nn(C)c3nnc(-c4n[nH]c(=O)[nH]c4=O)cc23)C(F)F)ccn1)C(F)(F)F |
| 0.05 | COCCOc1cc([C@@H](Oc2nn(C)c3nnc(-c4n[nH]c(=O)[nH]c4=O)cc23)C(F)F)ccn1 |
| 0.04 | C[C@@H](Nc1cc([C@@H](Oc2nn(C)c3nnc(-c4n[nH]c(=O)[nH]c4=O)cc23)C(F)F)ccn1)C(F)(F)F |
| 0.04 | Cn1nc(O[C@H](c2ccnc(OCC(C)(F)F)c2)C(F)F)c2cc(-c3n[nH]c(=O)[nH]c3=O)nnc21 |
